Where two headings read alike, the source gives them in different places. Marks after values point to notes of the source that are not given here.

We go through four compounds from patent US20100304426A1, “Analytical Methods for Measuring Synthetic Progesterone” (priority 2009, published 2010).

One series in a line: clinical. Particulars: human, in vivo, 200 mg. From the text: A definitive low-level LC/MS/MS analytical method to determine the concentrations of synthetic progesterone in human plasma is described. Instrumentation used in this example includes an Applied Biosystems Q-Trap 4000 system using Analyst® 1.4.2 software, Shimadzu LC-20AD HPLC pumps and a LEAP HTC PAL Autosampler. As understood by a person skilled in the art, various similar or equivalent pieces of instrumentation can be used to perform this method. It is also recognized that improved instrumentation can be introduced utilizing equivalent or similar principles of analysis to perform this method similarly or better by being faster, more sensitive, more accurate or more robust relative to the instrumentation used herein. Analyze the pregnant female plasma isotopic ratio standard seven consecutive times. Analyze the synthetic isotopic ratio standard at least seven consecutive times. Analyze the plate beginning with the first calibration sample. Using the data from the seven injections of pregnant female plasma calculate the average area for the progesterone transition and for the progesterone isotope transition. Calculate the ratio by dividing the average area of the progesterone peak by the average area of the isotope peak. This is the natural progesterone ratio. Using the data from the seven injections of the Synthetic Standard calculate the average area for the progesterone transition and for the progesterone isotope transition. Calculate the ratio by dividing the average area of the progesterone peak by the average area of the isotope peak. This is the synthetic progesterone ratio. […] In addition, data presented herein are for fasted post-menopausal women. Fasting can affect progesterone uptake. In this example, healthy, fasted, post-menopausal women orally ingest 1×200 mg progesterone. Plasma samples are obtained from 2 h pre-dose to 24 h post-dose. […] Cmax is the maximum observed concentration and Tmax the time at which Cmax took place. Clast is the value of the last measurable concentration, and […].

On the set-up of series [1]: AUC / Cmax: unit not given beside the values. Conditions: from package insert, total progesterone, cited from earlier work.
The conditions of series [2]: reported; cited from earlier work.

`CC(=O)[C@H]1CC[C@H]2[C@@H]3CCC4=CC(=O)CC[C@]4(C)[C@H]3CC[C@]12C` [Total Progesterone]: in “clinical” (po), the AUClast stood at 6.47 ng·h/mL and the time to peak (Tmax) was determined as 2.00 h.

With `CC(=O)[C@H]1CC[C@H]2[C@@H]3CCC4=CC(=O)CC[C@]4(C)[C@H]3CC[C@]12C` [PROMETRIUM, pregn-4-ene-3,20-dione], the values for the AUC (in the series “clinical” (female); in series [1] (100 mg after 5 daily doses); in series [1] (300 mg after 5 daily doses)) were 1.6 ng·h/mL, 43.3 + 30.8 and 175.7 + 170.3, respectively. In addition, the Cmax in the series “clinical” (female) is 3.1 ± 2.3; in the series “clinical” (female, Cmax), 1.05 ng/mL; in the series “clinical” (female, po, Cmax) it was 0.62 to 1.6 ng/mL; in series [1] (100 mg after 5 daily doses) it was 17.3 + 21.9; in series [1] (200 mg after 5 daily doses), 38.1 + 37.8; in series [1] (300 mg after 5 daily doses), 60.6 + 72.5. Further, the time to peak (Tmax) was 2.63 h in “clinical” (female, po); 2.3 + 1.4 in series [1] (200 mg after 5 daily doses); 1.7 + 0.6 in series [1] (300 mg after 5 daily doses). For the same compound, the area under the curve AUC(0-t) in the series “clinical” (female, po, AUC0-4 h) was 1.01 to 2.37 ng·h/mL; in the series “clinical” (female, po, AUClast), 2.11 ng·h/mL.

As for `CC(=O)[C@H]1CC[C@H]2[C@@H]3CCC4=CC(=O)CC[C@]4(C)[C@H]3CC[C@]12C` [progesterone], in series [2], the “half life in the circulation” value is recorded as “only a few minutes”.

Take `CC(=O)[C@H]1CC[C@H]2[C@@H]3CCC4=CC(=O)CC[C@]4(C)[C@H]3CC[C@]12C` [Endogenous Progesterone]: in the series “clinical” (po), the AUClast came to 3.84 ng·h/mL and the Tmax is given as 2.33^a h.
